Measurements from the supplement of paper PMC10307832.

Tests used:
Experiment in all cases: relative viability (nuclei count vs DMSO), 5 days (fraction); higher = more cells survive
NCI-H838 = test system: NCI-H838
Procedure, shortened: (§1)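 The day after seeding in 1536-well plates, lung cancer cell lines were treated by pin tool with a single drug, or with a fixed anchor-drug dose together with five library-drug doses (not always all listed) in √10 steps. After 5 days, a combined fix-and-stain solution (final 0.05% Triton X-100, 1% formaldehyde, 1 ug/ml Hoechst) was added. Nuclei counted on 4× images gave relative viability as treated counts over vehicle counts, reported as the median of duplicate plates.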

NCI-H23 = test system: NCI-H23
Procedure, shortened: as §1

PC-3 [JPC-3] = test system: PC-3 [JPC-3]
Procedure, shortened: as §1

NCI-H441 = test system: NCI-H441
Procedure, shortened: as §1

NCI-H1666 = test system: NCI-H1666
Procedure, shortened: as §1

NCI-H647 = test system: NCI-H647
Procedure, shortened: as §1

NCI-H358 = test system: NCI-H358
Procedure, shortened: as §1

NCI-H322M = test system: NCI-H322M
Procedure, shortened: as §1

NCI-H727 = test system: NCI-H727
Procedure, shortened: as §1

SK-LU-1 = test system: SK-LU-1
Procedure, shortened: as §1

NCI-H596 = test system: NCI-H596
Procedure, shortened: as §1

NCI-H661 = test system: NCI-H661
Procedure, shortened: as §1

NCI-H520 = test system: NCI-H520
Procedure, shortened: as §1

NCI-H1437 = test system: NCI-H1437
Procedure, shortened: as §1

EKVX = test system: EKVX
Procedure, shortened: as §1

NCI-H1975 = test system: NCI-H1975
Procedure, shortened: as §1

NCI-H1792 = test system: NCI-H1792
Procedure, shortened: as §1

LCLC-97TM1 = test system: LCLC-97TM1
Procedure, shortened: as §1

NCI-H1915 = test system: NCI-H1915
Procedure, shortened: as §1

NCI-H460 = test system: NCI-H460
Procedure, shortened: as §1

Q: For `Cc1cn(-c2cc(NC(=O)c3ccc(C)c(Nc4nccc(-c5cccnc5)n4)c3)cc(C(F)(F)F)c2)cn1` [Nilotinib] + Cc1nc(NC(=O)N2CCC[C@H]2C(N)=O)sc1-c1ccnc(C(C)(C)C(F)(F)F)c1 [Alpelisib] (partner 2 µM), which relative viability (NCI-H838; first compound 0.001 µM) is on record?
A: 1.06

Q: And the relative viability (NCI-H838; first compound 0.003162 µM)?
A: 1.31

Q: What about the relative viability (NCI-H838; first compound 0.01 µM) of the same molecule?
A: 1.26

Q: And the relative viability (NCI-H838; first compound 0.1 µM)?
A: 1.09

Q: What about the relative viability (NCI-H23; first compound 0.001 µM) of the same molecule?
A: 0.654

Q: What about the relative viability (NCI-H23; first compound 0.003162 µM) of the same molecule?
A: 0.784

Q: What about the relative viability (NCI-H23; first compound 0.01 µM) of the same molecule?
A: 0.773

Q: What about the relative viability (NCI-H23; first compound 0.03162 µM) of the same molecule?
A: 0.536

Q: And the relative viability (NCI-H23; first compound 0.1 µM)?
A: 0.665

Q: What about the relative viability (PC-3 [JPC-3]; first compound 0.001 µM) of the same molecule?
A: 0.987

Q: What about the relative viability (PC-3 [JPC-3]; first compound 0.003162 µM) of the same molecule?
A: 1.27

Q: What about the relative viability (PC-3 [JPC-3]; first compound 0.01 µM) of the same molecule?
A: 1.26

Q: And the relative viability (PC-3 [JPC-3]; first compound 0.03162 µM)?
A: 1.05

Q: And the relative viability (PC-3 [JPC-3]; first compound 0.1 µM)?
A: 0.982

Q: What about the relative viability (NCI-H441; first compound 0.001 µM) of the same molecule?
A: 0.761

Q: And the relative viability (NCI-H441; first compound 0.003162 µM)?
A: 1.14

Q: What about the relative viability (NCI-H441; first compound 0.01 µM) of the same molecule?
A: 0.765

Q: And the relative viability (NCI-H441; first compound 0.1 µM)?
A: 0.951

Q: What about the relative viability (NCI-H1666; first compound 0.001 µM) of the same molecule?
A: 0.877

Q: And the relative viability (NCI-H1666; first compound 0.003162 µM)?
A: 1.14

Q: What about the relative viability (NCI-H1666; first compound 0.01 µM) of the same molecule?
A: 0.956

Q: And the relative viability (NCI-H1666; first compound 0.03162 µM)?
A: 0.831

Q: And the relative viability (NCI-H1666; first compound 0.1 µM)?
A: 0.856

Q: What about the relative viability (NCI-H647; first compound 0.001 µM) of the same molecule?
A: 0.956

Q: What about the relative viability (NCI-H647; first compound 0.003162 µM) of the same molecule?
A: 1.16

Q: What about the relative viability (NCI-H647; first compound 0.03162 µM) of the same molecule?
A: 0.958

Q: And the relative viability (NCI-H647; first compound 0.1 µM)?
A: 0.872

Q: And the relative viability (NCI-H358; first compound 0.001 µM)?
A: 0.958

Q: And the relative viability (NCI-H358; first compound 0.003162 µM)?
A: 1.18

Q: What about the relative viability (NCI-H358; first compound 0.01 µM) of the same molecule?
A: 0.999

Q: And the relative viability (NCI-H358; first compound 0.03162 µM)?
A: 0.686

Q: And the relative viability (NCI-H358; first compound 0.1 µM)?
A: 0.666

Q: What about the relative viability (NCI-H322M; first compound 0.001 µM) of the same molecule?
A: 0.882

Q: What about the relative viability (NCI-H322M; first compound 0.003162 µM) of the same molecule?
A: 0.817

Q: What about the relative viability (NCI-H322M; first compound 0.03162 µM) of the same molecule?
A: 0.72

Q: And the relative viability (NCI-H322M; first compound 0.1 µM)?
A: 0.866

Q: What about the relative viability (NCI-H727; first compound 0.001 µM) of the same molecule?
A: 0.573

Q: What about the relative viability (NCI-H727; first compound 0.01 µM) of the same molecule?
A: 0.719

Q: What about the relative viability (NCI-H727; first compound 0.03162 µM) of the same molecule?
A: 0.456

Q: What about the relative viability (NCI-H727; first compound 0.1 µM) of the same molecule?
A: 0.395

Q: And the relative viability (SK-LU-1; first compound 0.001 µM)?
A: 0.929

Q: And the relative viability (SK-LU-1; first compound 0.003162 µM)?
A: 1.03

Q: And the relative viability (SK-LU-1; first compound 0.01 µM)?
A: 1.06

Q: And the relative viability (SK-LU-1; first compound 0.03162 µM)?
A: 0.632

Q: And the relative viability (SK-LU-1; first compound 0.1 µM)?
A: 0.719

Q: What about the relative viability (NCI-H596; first compound 0.001 µM) of the same molecule?
A: 0.457

Q: What about the relative viability (NCI-H596; first compound 0.003162 µM) of the same molecule?
A: 0.541

Q: What about the relative viability (NCI-H596; first compound 0.01 µM) of the same molecule?
A: 0.481

Q: What about the relative viability (NCI-H596; first compound 0.03162 µM) of the same molecule?
A: 0.299

Q: And the relative viability (NCI-H596; first compound 0.1 µM)?
A: 0.478

Q: What about the relative viability (NCI-H661; first compound 0.001 µM) of the same molecule?
A: 0.647

Q: What about the relative viability (NCI-H661; first compound 0.003162 µM) of the same molecule?
A: 0.592

Q: What about the relative viability (NCI-H661; first compound 0.01 µM) of the same molecule?
A: 0.721

Q: And the relative viability (NCI-H661; first compound 0.03162 µM)?
A: 0.366

Q: What about the relative viability (NCI-H661; first compound 0.1 µM) of the same molecule?
A: 0.651

Q: And the relative viability (NCI-H520; first compound 0.001 µM)?
A: 0.793

Q: And the relative viability (NCI-H520; first compound 0.01 µM)?
A: 0.986

Q: What about the relative viability (NCI-H520; first compound 0.03162 µM) of the same molecule?
A: 0.719

Q: What about the relative viability (NCI-H520; first compound 0.1 µM) of the same molecule?
A: 1.03

Q: What about the relative viability (NCI-H1437; first compound 0.001 µM) of the same molecule?
A: 0.829

Q: And the relative viability (NCI-H1437; first compound 0.003162 µM)?
A: 1.17

Q: What about the relative viability (NCI-H1437; first compound 0.01 µM) of the same molecule?
A: 1.39

Q: What about the relative viability (NCI-H1437; first compound 0.03162 µM) of the same molecule?
A: 0.75

Q: What about the relative viability (NCI-H1437; first compound 0.1 µM) of the same molecule?
A: 0.971

Q: What about the relative viability (EKVX; first compound 0.001 µM) of the same molecule?
A: 0.813

Q: And the relative viability (EKVX; first compound 0.003162 µM)?
A: 1.13

Q: And the relative viability (EKVX; first compound 0.01 µM)?
A: 1.29

Q: What about the relative viability (EKVX; first compound 0.03162 µM) of the same molecule?
A: 0.909

Q: And the relative viability (EKVX; first compound 0.1 µM)?
A: 1.02

Q: What about the relative viability (NCI-H1975; first compound 0.001 µM) of the same molecule?
A: 0.723

Q: What about the relative viability (NCI-H1975; first compound 0.003162 µM) of the same molecule?
A: 0.867

Q: What about the relative viability (NCI-H1975; first compound 0.01 µM) of the same molecule?
A: 0.868

Q: What about the relative viability (NCI-H1975; first compound 0.03162 µM) of the same molecule?
A: 0.737

Q: And the relative viability (NCI-H1975; first compound 0.1 µM)?
A: 0.648

Q: What about the relative viability (NCI-H1792; first compound 0.001 µM) of the same molecule?
A: 0.57

Q: And the relative viability (NCI-H1792; first compound 0.01 µM)?
A: 0.718

Q: What about the relative viability (NCI-H1792; first compound 0.1 µM) of the same molecule?
A: 1.01

Q: And the relative viability (LCLC-97TM1; first compound 0.003162 µM)?
A: 0.311

Q: What about the relative viability (LCLC-97TM1; first compound 0.01 µM) of the same molecule?
A: 0.279

Q: And the relative viability (LCLC-97TM1; first compound 0.03162 µM)?
A: 0.22

Q: What about the relative viability (LCLC-97TM1; first compound 0.1 µM) of the same molecule?
A: 0.275

Q: What about the relative viability (NCI-H1915; first compound 0.001 µM) of the same molecule?
A: 0.981

Q: What about the relative viability (NCI-H1915; first compound 0.003162 µM) of the same molecule?
A: 1.1

Q: And the relative viability (NCI-H1915; first compound 0.01 µM)?
A: 1.14

Q: And the relative viability (NCI-H1915; first compound 0.03162 µM)?
A: 1.01

Q: And the relative viability (NCI-H1915; first compound 0.1 µM)?
A: 0.981

Q: And the relative viability (NCI-H460; first compound 0.001 µM)?
A: 0.518

Q: What about the relative viability (NCI-H460; first compound 0.003162 µM) of the same molecule?
A: 0.88

Q: What about the relative viability (NCI-H460; first compound 0.01 µM) of the same molecule?
A: 0.936

Q: And the relative viability (NCI-H460; first compound 0.03162 µM)?
A: 0.312

Q: What about the relative viability (NCI-H460; first compound 0.1 µM) of the same molecule?
A: 0.41
